Assay results published in patent US20140336187A1, “METHODS FOR TREATING LEISHMANIASIS” (HOWARD UNIVERSITY, priority 2011, published 2014).
Where “and” joins values, the source holds several entries; their conditions need not be identical. Equal values may be shown once.

How the values were obtained:
[1] = test system: L. donovani promastigotes; experiment: Antileishmanial activity on L. donovani promastigotes (resazurin cell viability assay); type: cell-based, Leishmania donovani; settings: for IC50: L. donovani promastigotes, resazurin assay, 0.03 to 44 μM, means ± S.E. of three experiments, read-out: IC50 (μM) Promastigotes; for SI Values Promastigotes: SI = IC50 (mouse fibroblast) ÷ IC50 (promastigotes)
Protocol: Approximately 5×10^5 promastigotes/ml of L. donovani Khartum strain were inoculated into Yeager's Liver infusion tryptose (YLIT) medium or Brain Heart Infusion (BHI) broth (Difco), supplemented with glucose (2.5 mg/ml), 50 U/ml Pen-Strep and 0.005 mM Hemin at 25-26° C. and subcultured bi-weekly, Mikus et al., Parasitol Int., 48(3):265-9 (2000) (Mikus and Steverding, 2000).
(§1) The Leishmanicidal properties of fifteen naphthoquinone compounds (FIG. 1) on L. donovani promastigotes proliferation were assessed by the resazurin cell viability assay. Promastigotes from axenic culture were harvested during the exponential phase of growth (at least 5-day old culture), incubated at a concentration of 2×10^5 cells/200 μl with and without dilutions of compounds in 96-well microtitre plates. Dilutions of compounds covering 0.03 μM to 44 μM were prepared. […] 20 μl Alamar Blue (12.5 mg resazurin dissolved in 100 ml distilled water (Sigma #R7017)) (Mikes and Steverding, 2000) were added to each well and plates were incubated for another 2 hrs. […] Decrease in fluorescence (inhibition), were expressed as percentage of the fluorescence of control cultures and were plotted against the concentrations of compounds. The IC50 values were calculated from the sigmoidal inhibition curves.

[2] = test system: L. donovani amastigotes; experiment: Antileishmanial activity on L. donovani amastigotes (resazurin assay); type: cell-based, Leishmania donovani; settings: for IC50: Leishmania donovani, L. donovani amastigotes, 48 hrs exposure, resazurin assay, means ± S.E., read-out: IC50 (μM) Amastigotes; for SI Values Amastigotes: SI = IC50 (mouse fibroblast) ÷ IC50 (amastigotes)
Protocol: Amastigotes were grown in MAA/20 medium (Amastigote medium consisted of: M199 medium supplemented with 0.5% Tryptone broth, 0.01 mM bathocuproinedisulfonic acid, 0.108 mM L-Cysteine, 15 mM D-glucose, 0.685 mM L-glutamine, and 0.025 mM Hemin and 20% fetal calf serum (FCS) at a pH of 5.5).
Amastigotes were plated at a concentration of 2×10^5 cells/[…] 24 hrs before treatment with various compounds. Amastigotes were treated with dilutions of compounds in 96-well microtitre plates. Dilutions of compounds ranging from 0.03 μM to 44 μM were prepared and added to amastigotes. Amastigotes were exposed to compounds for 48 hrs and were incubated at 37° C. […] After the incubation period, 20 μl Alamar Blue (12.5 mg resazurin dissolved in 100 ml distilled water) (Mikes and Steverding, 2000) were added to each well and plates were incubated for another 2 hrs. […] Decrease of fluorescence (inhibition) was expressed as percentage of the fluorescence of control cultures and was plotted against the concentrations of compounds. The IC50 values were calculated from the sigmoidal inhibition curves. Amphotericin B was used as a reference drug.

[3] = test system: NIH 3T3 BALB/c mouse fibroblast cell line; experiment: Cytotoxic assessment on NIH 3T3 BALB/c mouse fibroblasts (resazurin assay); settings: read-out: IC50 (μM) Fibroblasts; NIH 3T3 BALB/c mouse fibroblasts; 48 hrs; resazurin assay; means ± S.E.
Protocol: Fibroblasts cells (4×10^4 cells/nil and adding 100 μl per well) were incubated with different concentrations of the naphthoquinone compounds (FIGS. 1) (3, 7, 13, 29, 33, and 44 μM) for 48 hrs after which viability of live fibroblast cells was determined by the Resazurin Method using a microplate reader (Bio-Tek Instruments EL311).
NIH 3T3 mouse fibroblasts were maintained in Roswell Park Memorial Institute (RPMI) medium supplemented with 10% Fetal calf serum, 50 units/ml penicillin, 50 units/ml streptomycin B in a humidified incubator at 37° C. in the presence of 5% CO2 (Scala et al., 2010).
Assays were performed to assess the cytotoxicity of these compounds in 96-well microtiter plates, with each well containing 100 μl of RPMI medium supplemented with 10% bovine calf scrum with 50 U/ml Pen-Strep. The cells were plated at a concentration of 4×10^3 cells/well (4×10^4 cells/ml). Fibroblast cells were then incubated with compounds for 48 hrs and inspected under an inverted microscope to assure growth of the controls and sterile conditions. 10 μl of resazurin solution (12.5 mg resazurin dissolved in 100 nil distilled water) were added to each well and the plates were incubated for another 2 hrs. The plates were read with a microplate reader at 570 nm. Experiments were done at least 3 times in triplicates (Scala et al., 2010).
Cell viability was determined using Resazurin Assay. The IC50 values were calculated and expressed as means±S.E (standard error).

[4] = test system: L. donovani promastigotes; experiment: Dose and time-dependent inhibitory effect on L. donovani promastigotes (2, 4, 6, 24 hours exposure); type: cell-based, Leishmania donovani; settings: Leishmania donovani, promastigotes, means ± S.E.
Protocol: as §1
A time and dose-dependent inhibitory effect of all 15 imido-substituted naphthoquinone compounds was assessed on their activity on promastigotes of L. donovani. Promastigotes were plated in 96-well plates and incubated in different concentrations of each compound (0.03 to 44 μM), incubated for two hours and viabilities assayed by the resazurin assay. A two hour exposure was assessed by calculation of IC50 values of each compound. Values are means±S.E. (Standard Error).
(§2) A time and dose-dependent inhibitory effect of all 15 imido-substituted naphthoquinone compounds was assessed on their activity on promastigotes of L. donovani. Promastigotes were plated in 96-well plates and incubated in different concentrations of each compound (0.03 to 44 μM), incubated for four hours and cell viabilities assayed by the resazurin assay. A four hour exposure was assessed by calculation of IC50 values of each compound. Values are means±S.E. (Standard Error).
Promastigotes were plated in 96-well plates and incubated in different concentrations of each compound (0.03 to 44 μM), incubated for six hours and cell viabilities assayed by the resazurin assay. A six hour exposure was assessed by calculation of IC50 values of each compound. Values are means±S.E. (Standard error).
as §2, with “incubated for twenty four hours” for “incubated for four hours”, “assay. A twenty four hour” for “assay. A four hour”

[5] = read-out: Antileishmanial Activity IC50 (μM) 2 hours, 2 hours exposure
[6] = read-out: Antileishmanial Activity IC50 (μM) 4 hours, 4 hours exposure
[7] = 6 hours exposure, read-out: Antileishmanial Activity IC50 (μM) 6 hours
[8] = 24 hours exposure, read-out: Antileishmanial Activity IC50 (μM) 24 hours

Row | SMILES | melting point [°C] | IC50 ([1]; Leishmania donovani) [µM] | SI Values Promastigotes [1] | IC50 [2] [µM] | SI Values Amastigotes [2] | IC50 [3] [µM] | IC50 [4, 5] [µM] | IC50 [4, 6] [µM] | IC50 [4, 7] [µM] | IC50 [4, 8] [µM] | IC50 [1] [µM]
1 | COc1ccc(C(=O)N(C(=O)c2ccc(OC)cc2)C2=C(Cl)C(=O)c3ccccc3C2=O)cc1 [IMDNQ9, 2-bis-(4-methoxybenzoyl)amino-3-chloro-1,4-naphthoquinone] | 283 to 287 | 5.64 ± 0.9 | 0.60±0.08 and 0.60 | 4.67 ± 0.8 | 0.73±0.13 and 0.73 | 3.41 ± 1.1 | 77.3 ± 119 | 23.3 ± 9.2 | 123 ± 35.1 | 7.23 ± 0.7 | –
2 | O=C1C(Br)=C(N(C(=O)c2ccccc2Cl)C(=O)c2ccccc2Cl)C(=O)c2ccccc21 [IMDNQ5, N-(3-Bromo-1,4-dioxo-1,4-dihydronaphthalen-2-yl)-2-chloro-N-(2-chlorobenzoyl)-benzamide] | 232 to 234 | 31.3 | 0.15 and 0.15±0.3 | 4.67 | 1.01±0.21 and 1.01 | 4.7 | 19 ± 1.5 | 0.57 | 1.66 ± 0.5 | 5.85 ± 2.2 | –
3 | COc1cc(C(=O)N(C(=O)c2cc(OC)c(OC)c(OC)c2)C2=C(Cl)C(=O)c3ccccc3C2=O)cc(OC)c1OC [IMDNQ11, 2-bis-(3,4,5-trimethoxybenzoyl)amino-3-chloro-1,4-naphthoquinone] | 171 to 172 | 22.9 ± 0.9 | 0.28±0.01 and 0.28 | 27.3 | – | 6.41 ± 2.9 | 198 ± 16.8 | 22.7 ± 14.2 | 4.06 ± 1.4 | 8.82 ± 2 | 11.85 ± 0.001
4 | O=C1C(Cl)=C(N(C(=O)c2ccc(F)cc2)C(=O)c2ccc(F)cc2)C(=O)c2ccccc21 [IMDNQ3, N-(3-Chloro-1,4-dioxo-1,4-dihydronaphthalen-2-yl)-4-fluoro-N-(4-fluorobenzoyl)-benzamide] | 284 to 286 | 10.8 | 2.30±1.05 and 2.30 | 4.1 | 6.06±1.77 and 6.06 | 24.8 | 11 ± 12.9 | 41.35 ± 0.21 | 2.32 ± 1.9 | 3.23 ± 5.3 | –
5 | O=C1C(Cl)=C(N(C(=O)c2ccc(Cl)cc2)C(=O)c2ccc(Cl)cc2)C(=O)c2ccccc21 [IMDNQ1, 4-Chloro-N-(4-chlorobenzoyl)-N-(3-chloro-1,4-dioxo-1,4-dihydronaphthalen-2-yl)-benzamide] | 212 to 213 | 1.84 ± 0.9 | 2.23±1.09 and 2.23 | 11.8 ± 9.7 | 0.35±0.42 and 0.35 | 4.1 ± 3.5 | 5.53 ± 0.3 | 1100 ± 50.3 | 19.2 ± 18.4 | 5.28 ± 1.8 | –
